Reference: patent publication US9339463B2, “Micronized opioid compositions having a specific particle size distribution” (priority 2007, dated 2016)

What was measured:
Assay type in all cases: physicochemical
[1] = Physical stability on storage: particle size (Dv90) by laser diffraction
[2] = Particle size distribution by laser diffraction (Malvern Mastersizer 2000), oxycodone base
[3] = Particle size by optical microscopy, number % undersize; details: mean diameter
Description: As a secondary analytical method, the micronized and the non-micronized oxycodone analyzed by laser diffraction with results shown in Table 1, were analyzed by optical microscopy to evaluate particle size and the results are shown in Table 2. Sample aliquots (˜50 mg for micronized and ˜225 mg for non-micronized) were dispersed in 10 ml of sunflower oil and viewed on a Nikon microscope equipped with a 10× objective. Particle size (mean diameter) was determined using Image Pro® Plus software and expressed as a number % undersize. The particle size values determined by optical microscopy as shown in Table 2 are consistent with the laser diffraction particle size data shown in Table 1.

[4] = Chemical stability on storage: assay and impurities
Description: Samples of Example 2 and additional samples comprising micronized and non-micronized oxycodone useful for exemplary dosage forms are tested for their chemical stability and physical stability. Based on a comparison of stability data from micronized and non-micronized samples stored at both 25° C./60% RH and 40 C.°/75% RH, no differences are observed in the impurity profile through three months of study as shown in Tables 4 and 5 for exemplary lots. The impurities analyzed include (HOXY), 14-Hydroxycodeinone; (DHOXYN), 7,8-Dihydro-8,14-Dihydroxycodeinone; (DHOXY), 7,8-Dihydro-14-hydroxycodeine; (OXYE), Oxycodone ethylenolate; (OXYN), 1-Hydroxyoxycodone and Oxycodone N-oxide. Most of the impurities are found to be below the limit of quantitation (LOQ), except for HOXY and DHOXYN which were unchanged at 0.1%. […] The solid state stability of the micronized oxycodone is monitored for particle size, XRPD, DSC, and microscopy as shown in Table 6.

[5] = Table 1 analysis, lot 2 in duplicate
[6] = additional laser diffraction analysis, Table 3
[7] = Time 0, listed as Non-micronized Oxycodone Free Base
[8] = 1 month, stored, including at 25° C./60% RH and/or 40° C./75% RH (not specified)
[9] = 3 months, stored, including at 25° C./60% RH and/or 40° C./75% RH (not specified)
[10] = 6 months, stored, including at 25° C./60% RH and/or 40° C./75% RH (not specified)
[11] = 9 months, stored, including at 25° C./60% RH and/or 40° C./75% RH (not specified)
[12] = 12 months, stored, including at 25° C./60% RH and/or 40° C./75% RH (not specified)

SMILES: COc1ccc2c3c1O[C@H]1C(=O)CC[C@@]4(O)[C@@H](C2)N(C)CC[C@]314 [third lot, oxycodone]
- Particle size (Dv90) ([1]; 25° C./60% RH, 6 months): 6 μ
- Particle size (Dv90) ([1]; 25° C./60% RH, 9 months): 6 μ
- Particle size (Dv90) ([1]; 25° C./60% RH, 12 months): 7 μ
- Particle size (Dv90) ([1]; Time 0): 4 μ

SMILES: COc1ccc2c3c1O[C@H]1C(=O)CC[C@@]4(O)[C@@H](C2)N(C)CC[C@]314 [Non-micronized, oxycodone]
- Particle size (Dv10) [2, 5]: 5.7 μ
- Particle size (Dv50) [2, 5]: 20.5 μ
- Particle size (Dv90) [2, 5]: 55.5 μ
- Particle size (Dv90) ([2]; Table 1 analysis, lot 2 in duplicate, listed as non-micronized sample): 56 μ
- Particle size (Dv10) [2, 6]: 4.9 μ
- Particle size (Dv50) [2, 6]: 20.1 μ
- Particle size (Dv90) [2, 6]: 50.9 μ
- Particle size (Dv90) ([2]; additional laser diffraction analysis, Table 3, listed as non-micronized): 51 μ
- mean particle size ([2]; oxycodone base before micronization): 51 μ
- % ≦ 1μ [3]: 21.4%
- % ≦ 5μ [3]: 50.7%
- % ≦ 10μ [3]: 69.1%
- 1-HydroxyOXY ([4]; 25° C./60% RH, 1 mo): <LOQ
- DHOXY (7,8-Dihydro-14-hydroxycodeine) ([4]; 25° C./60% RH, 1 mo): <LOQ
- DHOXYN (7,8-Dihydro-8,14-Dihydroxycodeinone) ([4]; 25° C./60% RH, 1 mo): 0.10%
- HOXY (14-Hydroxycodeinone) ([4]; 25° C./60% RH, 1 mo): 0.08%
- OXYE (Oxycodone ethylenolate) ([4]; 25° C./60% RH, 1 mo): <LOQ
- OXYN ([4]; 25° C./60% RH, 1 mo): <LOQ
- Other (impurities; Table 5: >0.05%) ([4]; 25° C./60% RH, 1 mo): <LOQ
- Total impurities ([4]; 25° C./60% RH, 1 mo): 0.18%
- Assay ([4]; 25° C./60% RH, 1 mo, listed as Non-micronized Oxycodone Free Base): 99.6%
- 1-HydroxyOXY ([4]; 25° C./60% RH, 3 mo): <LOQ
- DHOXY (7,8-Dihydro-14-hydroxycodeine) ([4]; 25° C./60% RH, 3 mo): <LOQ
- DHOXYN (7,8-Dihydro-8,14-Dihydroxycodeinone) ([4]; 25° C./60% RH, 3 mo): 0.10%
- HOXY (14-Hydroxycodeinone) ([4]; 25° C./60% RH, 3 mo): 0.08%
- OXYE (Oxycodone ethylenolate) ([4]; 25° C./60% RH, 3 mo): <LOQ
- OXYN ([4]; 25° C./60% RH, 3 mo): <LOQ
- Other (impurities; Table 5: >0.05%) ([4]; 25° C./60% RH, 3 mo): <LOQ
- Total impurities ([4]; 25° C./60% RH, 3 mo): 0.18%
- Assay ([4]; 25° C./60% RH, 3 mo, listed as Non-micronized Oxycodone Free Base): 99.6%
- 1-HydroxyOXY ([4]; 40° C./75% RH, 1 mo): <LOQ
- DHOXY (7,8-Dihydro-14-hydroxycodeine) ([4]; 40° C./75% RH, 1 mo): <LOQ
- DHOXYN (7,8-Dihydro-8,14-Dihydroxycodeinone) ([4]; 40° C./75% RH, 1 mo): 0.10%
- HOXY (14-Hydroxycodeinone) ([4]; 40° C./75% RH, 1 mo): 0.08%
- OXYE (Oxycodone ethylenolate) ([4]; 40° C./75% RH, 1 mo): <LOQ
- OXYN ([4]; 40° C./75% RH, 1 mo): <LOQ
- Total impurities ([4]; 40° C./75% RH, 1 mo): 0.18%
- Assay ([4]; 40° C./75% RH, 1 mo, listed as Non-micronized Oxycodone Free Base): 99.6%
- 1-HydroxyOXY ([4]; 40° C./75% RH, 3 mo): <LOQ
- DHOXY (7,8-Dihydro-14-hydroxycodeine) ([4]; 40° C./75% RH, 3 mo): <LOQ
- DHOXYN (7,8-Dihydro-8,14-Dihydroxycodeinone) ([4]; 40° C./75% RH, 3 mo): 0.10%
- HOXY (14-Hydroxycodeinone) ([4]; 40° C./75% RH, 3 mo): 0.08%
- OXYE (Oxycodone ethylenolate) ([4]; 40° C./75% RH, 3 mo): <LOQ
- OXYN ([4]; 40° C./75% RH, 3 mo): <LOQ
- Other (impurities; Table 5: >0.05%) ([4]; 40° C./75% RH, 3 mo): <LOQ
- Total impurities ([4]; 40° C./75% RH, 3 mo): 0.18%
- Assay ([4]; 40° C./75% RH, 3 mo, listed as Non-micronized Oxycodone Free Base): 99.5%
- 1-HydroxyOXY ([4]; Time 0): <LOQ
- DHOXY (7,8-Dihydro-14-hydroxycodeine) ([4]; Time 0): <LOQ
- OXYE (Oxycodone ethylenolate) ([4]; Time 0): <LOQ
- OXYN ([4]; Time 0): <LOQ
- Other (impurities; Table 5: >0.05%) ([4]; Time 0): <LOQ
- Total impurities ([4]; Time 0): 0.18%
- Assay [4, 7]: 101.1%
- DHOXYN (7,8-Dihydro-8,14-Dihydroxycodeinone) [4, 7]: 0.10%
- HOXY (14-Hydroxycodeinone) [4, 7]: 0.08%

SMILES: COc1ccc2c3c1O[C@H]1C(=O)CC[C@@]4(O)[C@@H](C2)N(C)CC[C@]314 [first high purity lot, oxycodone]
- Particle size (Dv90) [1, 8]: 5 μ
- Particle size (Dv90) [1, 9]: 5 μ
- Particle size (Dv90) [1, 10]: 5 μ
- Particle size (Dv90) [1, 11]: 6 μ
- Particle size (Dv90) [1, 12]: 6 μ
- Particle size (Dv90) ([1]; 25° C./60% RH, 1 month, listed as first high purity micronized lot): 4 μ
- Particle size (Dv90) ([1]; 25° C./60% RH, 3 months, listed as first high purity micronized lot): 5 μ
- Particle size (Dv90) ([1]; 25° C./60% RH, 6 months, listed as first high purity micronized lot): 5 μ
- Particle size (Dv90) ([1]; 25° C./60% RH, 9 months, listed as first high purity micronized lot): 7 μ
- Particle size (Dv90) ([1]; 25° C./60% RH, 12 months, listed as first high purity micronized lot): 6 μ
- Particle size (Dv90) ([1]; 40° C./75% RH, 1 month, listed as first high purity micronized lot): 5 μ
- Particle size (Dv90) ([1]; 40° C./75% RH, 3 months, listed as first high purity micronized lot): 5 μ
- Particle size (Dv90) ([1]; 40° C./75% RH, 6 months, listed as first high purity micronized lot): 5 μ
- Particle size (Dv90) ([1]; Time 0): 4 μ
- Particle size (Dv90) ([1]; Time 0, listed as first high purity micronized lot): 4 μ

SMILES: COc1ccc2c3c1O[C@H]1C(=O)CC[C@@]4(O)[C@@H](C2)N(C)CC[C@]314 [second lot, oxycodone]
- Particle size (Dv90) ([1]; 25° C./60% RH, 6 months): 5 μ
- Particle size (Dv90) ([1]; 25° C./60% RH, 9 months): 6 μ
- Particle size (Dv90) ([1]; 25° C./60% RH, 12 months): 6 μ
- Particle size (Dv90) ([1]; Time 0): 4 μ

SMILES: COc1ccc2c3c1O[C@H]1C(=O)CC[C@@]4(O)[C@@H](C2)N(C)CC[C@]314 [third high purity lot, oxycodone]
- Particle size (Dv90) [1, 8]: 4 μ
- Particle size (Dv90) [1, 9]: 4 μ
- Particle size (Dv90) [1, 10]: 5 μ
- Particle size (Dv90) [1, 11]: 5 μ
- Particle size (Dv90) [1, 12]: 5 μ
- Particle size (Dv90) ([1]; 25° C./60% RH, 1 month, listed as third high purity micronized lot): 4 μ
- Particle size (Dv90) ([1]; 25° C./60% RH, 3 months, listed as third high purity micronized lot): 4 μ
- Particle size (Dv90) ([1]; 25° C./60% RH, 6 months, listed as third high purity micronized lot): 5 μ
- Particle size (Dv90) ([1]; 25° C./60% RH, 9 months, listed as third high purity micronized lot): 5 μ
- Particle size (Dv90) ([1]; 25° C./60% RH, 12 months, listed as third high purity micronized lot): 5 μ
- Particle size (Dv90) ([1]; 40° C./75% RH, 1 month, listed as third high purity micronized lot): 4 μ
- Particle size (Dv90) ([1]; 40° C./75% RH, 3 months, listed as third high purity micronized lot): 5 μ
- Particle size (Dv90) ([1]; 40° C./75% RH, 6 months, listed as third high purity micronized lot): 5 μ
- Particle size (Dv90) ([1]; Time 0): 5 μ
- Particle size (Dv90) ([1]; Time 0, listed as third high purity micronized lot): 5 μ
